Measurements from US9932354B2, “Imidazo-oxadiazole and imidazo-thiadiazole derivatives” (Ares Trading S.A., priority 2012, dated 2018).

Experiments:
[1] = system: Amyloid-β peptide release (AβTotal), HEK cells overexpressing APP (HEK-APP); assay: Amyloid-β peptide release (AβTotal) assay, AlphaLISA on supernatant of HEK-APP cells; type: cell-based; settings: ratio Abtot vs Ab42, HEK-APP cells, 24 h
[2] = system: Amyloid-β peptide release (Aβ42), HEK cells overexpressing APP (HEK-APP); assay: Amyloid-β peptide release (Aβ42) assay, AlphaLISA on supernatant of HEK-APP cells; type: cell-based; settings: Homo sapiens, HEK293, 24 h incubation with compound, read-out: Ab42 IC50 Ranges
In short: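 HEK-APP cells treated with compounds for 24 h at 37 °C, 5% CO2. Supernatant Aβ42 or total Aβ measured by AlphaLISA after 4.5 h with antibody beads (6E10 acceptor beads for total). IC50 values derived.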

Row | Compound | Abtot/Ab42 selectivity ranges [1] | IC50 [2]
1 | Cc1ncc2sc(C(=O)N3CCCC3c3ccc(C(F)(F)F)cc3)nn12 (centres unmarked) [Example 112, (5-Methyl-imidazo[5,1-b][1,3,4]thiadiazol-2-yl)-[2-(4-trifluoromethyl-phenyl)-pyrrolidin-1-yl]-methanone] | d (d: 10 fold > selectivity) | 100 to 500 nM
2 | Cc1ncc2sc(C(=O)N3CCC[C@@H]3c3ccc(Br)cc3)nn12 [Example 113, (R)-(2-(4-bromophenyl)pyrrolidin-1-yl)(5-methylimidazo[5,1-b][1,3,4]thiadiazol-2-yl)methanone] | d (d: 10 fold > selectivity) | < 100 nM
3 | Cc1ncc2sc(C(=O)N3CCC[C@H]3c3ccc(Br)cc3)nn12 [Example 114, (S)-(2-(4-bromophenyl)pyrrolidin-1-yl) (5-methylimidazo[5,1-b][1,3,4]thiadiazol-2-yl)methanone] | d (d: 10 fold > selectivity) | 1000 to 2200 nM
4 | Cc1ncc2sc(C(=O)N3CCCCC3c3ccccc3Cl)nn12 (centres unmarked) [Example 115, [2-(2-Chloro-phenyl)-piperidin-1-yl]-(5-methyl-imidazo[5,1-b][1,3,4]thiadiazol-2-yl)-methanone] | d (d: 10 fold > selectivity) | 500 to 1000 nM
5 | Cc1ncc2sc(C(=O)N3CCCCC3c3cccc(C(F)(F)F)c3)nn12 (centres unmarked) [Example 116, (5-Methyl-imidazo[5,1-b][1,3,4]thiadiazol-2-yl)-[2-(3-trifluoromethyl-phenyl)-piperidin-1-yl]-methanone] | d (d: 10 fold > selectivity) | 1000 to 2200 nM
6 | Cc1ncc2sc(C(=O)N3CCCCC3Cc3ccccc3)nn12 (centres unmarked) [Example 117, (2-Benzyl-piperidin-1-yl)-(5-methyl-imidazo[5,1-b][1,3,4]thiadiazol-2-yl)-methanone] | d (d: 10 fold > selectivity) | 1000 to 2200 nM
7 | Cc1ccc(C2CCCN2C(=O)c2nn3c(C)ncc3s2)cc1 (centres unmarked) [Example 119, (5-Methyl-imidazo[5,1-b][1,3,4]thiadiazol-2-yl)-(2-p-tolyl-pyrrolidin-1-yl)-methanone] | d (d: 10 fold > selectivity) | 100 to 500 nM
8 | Cc1ncc2sc(C(=O)N3CCCC[C@H]3c3ccccc3)nn12 [Example 120, (5-Methyl-imidazo[5,1-b][1,3,4]thiadiazol-2-yl)-((S)-2-phenyl-piperidin-1-yl)-methanone] | d (d: 10 fold > selectivity) | 500 to 1000 nM
9 | Cc1ccccc1C1CCCN1C(=O)c1nn2c(C)ncc2s1 (centres unmarked) [Example 121, (5-Methyl-imidazo[5,1-b][1,3,4]thiadiazol-2-yl)-(2-o-tolyl-pyrrolidin-1-yl)-methanone] | d (d: 10 fold > selectivity) | 500 to 1000 nM
10 | Cc1ncc2sc(C(=O)N3CCCC3c3ccccc3Cl)nn12 (centres unmarked) [Example 122, [2-(2-Chloro-phenyl)-pyrrolidin-1-yl]-(5-methyl-imidazo[5,1-b][1,3,4]thiadiazol-2-yl)-methanone] | d (d: 10 fold > selectivity) | 1000 to 2200 nM
11 | Cc1ncc2sc(C(=O)N3CCCC3c3cccc(Br)c3)nn12 (centres unmarked) [Example 123, [2-(3-Bromo-phenyl)-pyrrolidin-1-yl]-(5-methyl-imidazo[5,1-b][1,3,4]thiadiazol-2-yl)-methanone] | d (d: 10 fold > selectivity) | 1000 to 2200 nM
12 | Cc1ncc2sc(C(=O)N3CCCC3c3ccc(F)cc3)nn12 (centres unmarked) [Example 124, [2-(4-Fluoro-phenyl)-pyrrolidin-1-yl]-(5-methyl-imidazo[5,1-b][1,3,4]thiadiazol-2-yl)-methanone] | d (d: 10 fold > selectivity) | 100 to 500 nM
13 | COc1cc(NC(=O)Cc2cccc3ccccc23)ccc1-c1nn2c(C)ncc2s1 [Example 125, N-[3-Methoxy-4-(5-methyl-imidazo[5,1-b][1,3,4]thiadiazol-2-yl)-phenyl]-2-naphthalen-1-yl-acetamide] | c (c: 50 fold > selectivity ≥ 10 fold) | 100 to 500 nM
14 | COc1cc(NC(=O)Cc2cc(C)ccc2C)ccc1-c1nn2c(C)ncc2s1 [Example 126, 2-(2,5-Dimethyl-phenyl)-N-[3-methoxy-4-(5-methyl-imidazo[5,1-b][1,3,4]thiadiazol-2-yl)-phenyl]-acetamide] | d (d: 10 fold > selectivity) | 500 to 1000 nM
15 | Cc1ncc2sc(-c3ccc(C(=O)NCc4cccc5ccccc45)cc3)nn12 [Example 127, 4-(5-Methyl-imidazo[5,1-b][1,3,4]thiadiazol-2-yl)-N-naphthalen-1-ylmethyl-benzamide] | b (b: 100 fold > selectivity ≥ 50 fold) | 500 to 1000 nM
16 | Cc1ncc2sc(-c3ccc(NC(=O)Cc4ccc(Cl)c(Cl)c4)cc3)nn12 [Example 128, 2-(3,4-Dichloro-phenyl)-N-[4-(5-methyl-imidazo[5,1-b][1,3,4]thiadiazol-2-yl)-phenyl]-acetamide] | c (c: 50 fold > selectivity ≥ 10 fold) | 500 to 1000 nM
